Assay results as given in patent US20230053864A1, “Methods for Identifying Modulators of G Protein-Coupled Receptors” (University of Miami, priority 2019, published 2023).
Entries after “also recorded” stand apart in the source; their conditions may differ.

Experiments:
[1] = target: T1, GPR65 (Homo sapiens, UniProt Q8IYL9); assay: dCyFIRscreen profiling and titrations in yeast GPCR-Gα reporter strains; type: cell-based
T1 construct: expressed in transfected cells; host or cells: Saccharomyces cerevisiae BY4741-derived GPCR-Gα reporter strains, X-2 landing pad
T1 sequence (Q8IYL9 whole entry): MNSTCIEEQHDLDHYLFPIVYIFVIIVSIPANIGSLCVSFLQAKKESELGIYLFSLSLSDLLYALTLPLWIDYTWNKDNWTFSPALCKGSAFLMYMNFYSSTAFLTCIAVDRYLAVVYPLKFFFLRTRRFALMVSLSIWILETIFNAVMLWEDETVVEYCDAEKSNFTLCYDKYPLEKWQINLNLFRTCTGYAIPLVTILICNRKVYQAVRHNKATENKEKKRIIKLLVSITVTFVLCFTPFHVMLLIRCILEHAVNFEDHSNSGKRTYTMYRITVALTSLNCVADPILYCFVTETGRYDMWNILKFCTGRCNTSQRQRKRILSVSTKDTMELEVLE
Description: (§1) Individual Gα reporter strains were grown in SCD LoFo pH=7.0 at 30° C. to an OD=1.0 in a 2.0 mL 96-well DeepWell block (Greiner; 780271-FD). Cells were normalized to an OD of 0.1 in SCD LoFo pH=7.0 using a Biomek NXp liquid-handling robot. 10× ligand/vehicle stocks were prepared (see Table 2) and 4 μL were distributed to each well of a 384-well plate (Greiner; 781096) in quadruplicate using a Biomek NXp. 36 μL normalized cells were distributed to each well containing the appropriate 10× ligand/vehicle. Plates were sealed with a breathable cover (Diversified Biotech; BERM-2000) and incubated at 30° C. Fluorescence readings were collected after 18 hours using a plate reader (ClarioStar, BMG LabTech, Offenburg, Germany) (bottom read, 10 flashes/well, excitation filter: 430-10 nm, dichroic filter: LP 458 nm, emission filter: 482-16 nm, gain=1300 (1500 for FIG. 1B.)). Absorbance readings were also collected after 18 hours using the same instrument (22 flashes/well, excitation filter: 600 nm).
(§2) All titration curves were analyzed using Prism software and the pharmacological fitting function log(agonist) vs. response—Variable slope (four parameters) (GraphPad Software, San Diego, USA).

[2] = target: T2, GPR68 (Homo sapiens, UniProt Q15743); assay: as above; type: cell-based
T2 construct: expressed in transfected cells; host or cells: Saccharomyces cerevisiae BY4741-derived GPCR-Gα reporter strains, X-2 landing pad
T2 sequence (Q15743 whole entry): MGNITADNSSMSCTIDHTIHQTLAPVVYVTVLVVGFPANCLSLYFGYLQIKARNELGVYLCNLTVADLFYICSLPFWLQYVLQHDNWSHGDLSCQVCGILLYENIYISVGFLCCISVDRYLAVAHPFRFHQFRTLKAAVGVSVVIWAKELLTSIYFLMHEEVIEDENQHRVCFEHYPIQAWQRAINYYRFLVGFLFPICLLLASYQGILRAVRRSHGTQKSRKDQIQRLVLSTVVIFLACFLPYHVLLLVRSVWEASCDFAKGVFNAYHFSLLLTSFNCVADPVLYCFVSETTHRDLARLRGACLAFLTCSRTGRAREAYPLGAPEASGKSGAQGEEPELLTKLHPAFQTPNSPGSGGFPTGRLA
Description: as §1, §2

[3] = target: T3, GPR35 (Homo sapiens, UniProt Q9HC97); assay: as above; type: cell-based
T3 construct: expressed in transfected cells; host or cells: Saccharomyces cerevisiae BY4741-derived GPCR-Gα reporter strains, X-2 landing pad
T3 sequence (Q9HC97 whole entry): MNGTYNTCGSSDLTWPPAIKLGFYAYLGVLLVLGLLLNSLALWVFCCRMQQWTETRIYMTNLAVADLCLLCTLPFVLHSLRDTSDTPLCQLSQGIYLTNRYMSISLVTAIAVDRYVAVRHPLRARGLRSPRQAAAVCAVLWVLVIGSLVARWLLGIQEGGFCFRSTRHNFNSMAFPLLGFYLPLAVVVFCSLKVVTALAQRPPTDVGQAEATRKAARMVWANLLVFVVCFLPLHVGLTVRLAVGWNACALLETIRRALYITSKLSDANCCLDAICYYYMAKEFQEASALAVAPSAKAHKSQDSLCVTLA
Description: as §1, §2

[4] = target: T4, CNR2 (Homo sapiens, UniProt P34972); assay: dCyFIRscreen profiling in yeast GPCR-Gα reporter strains; type: cell-based
T4 construct: expressed in transfected cells; host or cells: Saccharomyces cerevisiae BY4741-derived GPCR-Gα reporter strains, X-2 landing pad
T4 sequence (P34972 whole entry): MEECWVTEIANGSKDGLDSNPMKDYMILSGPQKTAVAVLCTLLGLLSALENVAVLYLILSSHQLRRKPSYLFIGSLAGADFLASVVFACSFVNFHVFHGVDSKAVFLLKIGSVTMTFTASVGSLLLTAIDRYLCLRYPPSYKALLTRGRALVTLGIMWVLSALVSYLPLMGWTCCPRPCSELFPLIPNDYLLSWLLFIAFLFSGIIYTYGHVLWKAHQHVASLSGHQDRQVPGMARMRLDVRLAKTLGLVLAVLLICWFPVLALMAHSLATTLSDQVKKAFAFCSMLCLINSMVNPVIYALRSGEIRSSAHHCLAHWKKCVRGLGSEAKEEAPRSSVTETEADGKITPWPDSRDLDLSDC
Description: as §1

[5] = target: T5, ADORA2A (Homo sapiens, UniProt P29274); assay: dCyFIRscreen profiling and titrations in yeast GPCR-Gα reporter strains; type: cell-based
T5 construct: expressed in transfected cells; host or cells: Saccharomyces cerevisiae BY4741-derived GPCR-Gα reporter strains, X-2 landing pad
T5 sequence (P29274 whole entry): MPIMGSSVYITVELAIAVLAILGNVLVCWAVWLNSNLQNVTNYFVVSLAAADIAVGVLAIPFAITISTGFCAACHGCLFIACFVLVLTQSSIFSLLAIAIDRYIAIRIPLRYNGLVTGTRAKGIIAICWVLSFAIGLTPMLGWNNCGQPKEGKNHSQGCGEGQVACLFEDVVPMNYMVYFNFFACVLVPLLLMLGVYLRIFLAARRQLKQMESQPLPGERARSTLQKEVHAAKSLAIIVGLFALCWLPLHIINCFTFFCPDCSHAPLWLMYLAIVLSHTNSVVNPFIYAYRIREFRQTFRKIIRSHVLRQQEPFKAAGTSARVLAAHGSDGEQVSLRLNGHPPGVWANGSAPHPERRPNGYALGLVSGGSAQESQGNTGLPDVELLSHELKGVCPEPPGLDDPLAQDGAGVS
Description: as §1, §2

[6] = target: HCAR3 (Homo sapiens, UniProt P49019); details: literature value; read-out: EC50 at HCAR3 observed by Colosimo et al.; cited from earlier work
Sequence of HCAR3 (P49019 whole entry): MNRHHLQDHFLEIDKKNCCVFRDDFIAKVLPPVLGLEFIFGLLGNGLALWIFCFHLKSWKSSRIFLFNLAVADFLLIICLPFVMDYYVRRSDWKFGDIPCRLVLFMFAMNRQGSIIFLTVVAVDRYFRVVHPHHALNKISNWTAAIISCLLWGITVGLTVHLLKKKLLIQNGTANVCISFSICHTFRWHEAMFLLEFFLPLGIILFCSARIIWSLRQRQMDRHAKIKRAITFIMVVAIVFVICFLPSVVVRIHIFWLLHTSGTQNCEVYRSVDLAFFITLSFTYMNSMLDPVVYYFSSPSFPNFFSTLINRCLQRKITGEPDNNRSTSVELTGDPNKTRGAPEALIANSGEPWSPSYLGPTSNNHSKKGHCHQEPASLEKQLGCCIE

Row | Compound | activity at GPR65 in words (mode of action) [1] | activity at GPR68 in words (mode of action) [2] | activity at GPR35 in words (mode of action, potency range) [3] | activity at CNR2 in words (mode of action) [4] | activity at ADORA2A in words (mode of action) [5] | EC50 [6]
1 | O[C@H]1[C@H](O)[C@@H](O)[C@H](O)[C@@H](O)[C@H]1O [inositol] | increase receptor signaling and PAM-agonist and PAMs | increase receptor signaling and PAM-agonist and PAMs | increase receptor signaling; also recorded: PAM-agonist | increase receptor signaling | increase receptor signaling; also recorded: NAM-agonist | –
2 | O=C(O)CCc1ccccc1 [phenylpropanoic acid] | – | – | – | – | – | 208 µM
